Our source for the IC50 values is patent publication US11254668B2, “Pyrazolo[1,5-A]pyrazin-4-yl and related derivatives” (Pfizer Inc., priority 2017, dated 2022).

Type in all cases: biochemical
Settings in all cases: JAK Caliper enzyme assay

One test concerns the target TYK2 (Homo sapiens (Human), UniProt P29597). Briefly: JAK Caliper Enzyme Assay at 1 mM ATP, TYK2. A digest of the protocol: (§1)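 Peptide phosphorylation by recombinant human kinase domain, 1 mM ATP, room temperature, EDTA-terminated, detected by microfluidic mobility shift; % effect normalised to DMSO baseline.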
The next test concerns the target JAK1 (Homo sapiens (Human), UniProt P23458). Briefly: JAK Caliper Enzyme Assay at 1 mM ATP, JAK1. In outline:
(§2)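 Recombinant human kinase domains phosphorylated a fluorescent synthetic peptide at room temperature, with enzyme level and time tuned to 20% to 30% conversion; EDTA stop buffer ended reactions. Mobility-shift separation gave percent product from peak heights, normalised to DMSO and positive controls, and IC50s came from concentration–effect curves.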

The target of a further test is JAK2 (Homo sapiens (Human), UniProt O60674). The test can be described thus: JAK Caliper Enzyme Assay at 1 mM ATP, JAK2. A digest of the protocol: as §1
Chain of JAK2 (O60674 849-1124): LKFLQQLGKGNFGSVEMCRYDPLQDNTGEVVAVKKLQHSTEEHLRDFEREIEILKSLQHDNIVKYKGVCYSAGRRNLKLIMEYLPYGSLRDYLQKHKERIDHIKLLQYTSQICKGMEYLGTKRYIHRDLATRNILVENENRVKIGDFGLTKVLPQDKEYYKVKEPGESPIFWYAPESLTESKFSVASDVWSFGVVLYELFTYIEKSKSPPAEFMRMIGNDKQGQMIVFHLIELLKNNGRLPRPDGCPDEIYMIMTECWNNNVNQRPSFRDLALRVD
The next test concerns the target JAK3 (Homo sapiens (Human), UniProt P52333). The test can be described thus: JAK Caliper Enzyme Assay at 1 mM ATP, JAK3. In outline: as §2

Chain of JAK3 (P52333 822-1111): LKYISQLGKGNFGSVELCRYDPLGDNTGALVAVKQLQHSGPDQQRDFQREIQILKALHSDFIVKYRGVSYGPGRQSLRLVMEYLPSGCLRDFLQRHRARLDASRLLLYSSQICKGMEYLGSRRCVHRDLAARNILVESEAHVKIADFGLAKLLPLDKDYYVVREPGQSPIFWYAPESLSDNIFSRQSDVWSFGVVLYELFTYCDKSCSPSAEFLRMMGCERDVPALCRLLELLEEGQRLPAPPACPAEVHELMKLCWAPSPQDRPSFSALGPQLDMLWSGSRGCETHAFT
Chain of TYK2 (P29597 897-1176): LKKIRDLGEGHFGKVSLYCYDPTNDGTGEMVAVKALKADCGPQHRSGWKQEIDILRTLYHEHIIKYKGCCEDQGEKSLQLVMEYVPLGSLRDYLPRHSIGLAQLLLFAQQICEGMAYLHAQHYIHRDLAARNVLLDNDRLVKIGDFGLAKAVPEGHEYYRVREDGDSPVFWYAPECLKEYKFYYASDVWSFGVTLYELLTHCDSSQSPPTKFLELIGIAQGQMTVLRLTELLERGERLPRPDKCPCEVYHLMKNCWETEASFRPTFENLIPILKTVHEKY
Chain of JAK1 (P23458 875-1153): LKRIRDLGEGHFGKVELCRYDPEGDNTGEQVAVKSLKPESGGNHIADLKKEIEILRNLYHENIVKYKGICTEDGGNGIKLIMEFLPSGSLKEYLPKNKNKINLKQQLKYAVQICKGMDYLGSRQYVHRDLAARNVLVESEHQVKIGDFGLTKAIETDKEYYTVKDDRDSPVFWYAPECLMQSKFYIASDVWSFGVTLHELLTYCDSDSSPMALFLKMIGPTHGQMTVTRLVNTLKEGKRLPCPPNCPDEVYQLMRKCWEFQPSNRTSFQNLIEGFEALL

Take `CS(=O)(=O)N1CC(CC#N)(n2cnc(-c3cc(-c4cn[nH]c4)cc4ncccc34)n2)C1` [Example 453, [1-(methylsulfonyl)-3-{3-[7-(1H-pyrazol-4-yl)quinolin-5-yl]-1H-1,2,4-triazol-1-yl}azetidin-3-yl]acetonitrile]: the half-maximal inhibitory concentration (IC50) on TYK2 is 0.259 µM; at JAK1, 8.3 µM; on JAK2 it was 3.18 µM; on JAK3 it was > 10 µM.

On to `N#CC[C@]1(n2cc(-c3cc(-c4cc[nH]n4)cc4nccn34)cn2)C[C@@H](C#N)C1` [Example 454, cis-3-(cyanomethyl)-3-{4-[7-(1H-pyrazol-3-yl)imidazo[1,2-a]pyridin-5-yl]-1H-pyrazol-1-yl}cyclobutanecarbonitrile], for which the IC50 on TYK2 was 0.036 µM; at JAK1, 0.912 µM; at JAK2, 0.468 µM; at JAK3, > 10 µM.

Turning to `N#CC[C@]1(n2cc(-c3cc(-c4cc[nH]n4)cc4nccn34)cn2)C[C@H](C#N)C1` [Example 455, trans-3-(cyanomethyl)-3-{4-[7-(1H-pyrazol-3-yl)imidazo[1,2-a]pyridin-5-yl]-1H-pyrazol-1-yl}cyclobutanecarbonitrile], the IC50 is 0.319 µM at TYK2, > 10 µM on JAK1, 5.68 µM on JAK2 and > 10 µM at JAK3.

Consider `N#CC[C@]1(n2cc(-c3cc(-c4cn[nH]c4)cc4nccn34)cn2)C[C@@H](C#N)C1` [Example 456, cis-3-(cyanomethyl)-3-{4-[7-(1H-pyrazol-4-yl)imidazo[1,2-a]pyridin-5-yl]-1H-pyrazol-1-yl}cyclobutanecarbonitrile], for which the IC50 on TYK2 was 0.126 µM; on JAK1, 1.31 µM; at JAK2 it was 0.812 µM; at JAK3 it was > 10 µM.

As for `Cn1cc(-c2cc(-c3cnn(C4(CC#N)CN(CC(F)(F)F)C4)c3)n3ccnc3c2)cn1` [Example 457, [3-{4-[7-(1-methyl-1H-pyrazol-4-yl)imidazo[1,2-a]pyridin-5-yl]-1H-pyrazol-1-yl}-1-(2,2,2-trifluoroethyl)azetidin-3-yl]acetonitrile], the IC50 on TYK2 was 0.252 µM; at JAK1, > 10 µM; at JAK2, 3.94 µM; on JAK3 it was > 10 µM.

Consider `Cn1cc(-c2cc(-c3cnn([C@]4(CC#N)C[C@@H](C#N)C4)c3)n3ccnc3c2)cn1` [Example 459, trans-3-(cyanomethyl)-3-{4-[7-(1-methyl-1H-pyrazol-4-yl)imidazo[1,2-a]pyridin-5-yl]-1H-pyrazol-1-yl}cyclobutanecarbonitrile], for which the IC50 at TYK2 is 0.297 µM; at JAK1, > 10 µM; on JAK2 it was 3.15 µM; on JAK3 it was > 10 µM.

Turning to `CO[C@H]1C[C@@](CC#N)(n2cc(-c3cc(-c4cnn(C)c4)cc4nccn34)cn2)C1` [Example 460, (cis-3-methoxy-1-{4-[7-(1-methyl-1H-pyrazol-4-yl)imidazo[1,2-a]pyridin-5-yl]-1H-pyrazol-1-yl}cyclobutyl)acetonitrile], the IC50 on TYK2 is 0.395 µM; at JAK1, > 10 µM; at JAK2, 5.36 µM; at JAK3, > 10 µM.

`Cc1cc(-c2cc(-c3cnn([C@]4(CC#N)C[C@@H](C#N)C4)c3)n3ccnc3c2)[nH]n1` [Example 461, trans-3-(cyanomethyl)-3-{4-[7-(3-methyl-1H-pyrazol-5-yl)imidazo[1,2-a]pyridin-5-yl]-1H-pyrazol-1-yl}cyclobutanecarbonitrile]: the half-maximal inhibitory concentration (IC50) is 0.02 µM at TYK2, 1.56 µM on JAK1, 0.389 µM on JAK2 and > 10 µM on JAK3.

For `Cc1cc(-c2cc(-c3cnn([C@]4(CC#N)C[C@H](C#N)C4)c3)n3ccnc3c2)n[nH]1` [Example 462, cis-3-(cyanomethyl)-3-{4-[7-(5-methyl-1H-pyrazol-3-yl)imidazo[1,2-a]pyridin-5-yl]-1H-pyrazol-1-yl}cyclobutanecarbonitrile], the IC50 on TYK2 was 0.02 µM; at JAK1, 0.873 µM; on JAK2, 0.188 µM; at JAK3 it was > 10 µM.

`CO[C@H]1C[C@@](CC#N)(n2cc(-c3cc(-c4c[nH]nc4CO)cc4nccn34)cn2)C1` [Example 463, [cis-1-(4-{7-[3-(hydroxymethyl)-1H-pyrazol-4-yl]imidazo[1,2-a]pyridin-5-yl}-1H-pyrazol-1-yl)-3-methoxycyclobutyl]acetonitrile]: the IC50 was 2.14 µM on TYK2, > 10 µM at JAK1, > 10 µM at JAK2 and > 10 µM at JAK3.

As to `CO[C@H]1C[C@](CC#N)(n2cc(-c3cc(-c4c[nH]nc4CO)cc4nccn34)cn2)C1` [Example 464, [trans-1-(4-{7-[3-(hydroxymethyl)-1H-pyrazol-4-yl]imidazo[1,2-a]pyridin-5-yl}-1H-pyrazol-1-yl)-3-methoxycyclobutyl]acetonitrile], the half-inhibitory concentration (IC50) on TYK2 is 4.66 µM; on JAK1, > 10 µM; at JAK2, > 10 µM; on JAK3, > 10 µM.

Turning to `Cc1ncc(-c2cc(-c3cnn([C@]4(CC#N)C[C@H](C#N)C4)c3)n3ccnc3c2)[nH]1` [Example 465, cis-3-(cyanomethyl)-3-{4-[7-(2-methyl-1H-imidazol-5-yl)imidazo[1,2-a]pyridin-5-yl]-1H-pyrazol-1-yl}cyclobutanecarbonitrile], the IC50 at TYK2 was 0.054 µM; at JAK1 it was 6 µM; at JAK2 it was 0.859 µM; at JAK3 it was > 10 µM.

In the case of `N#CC[C@]1(n2cc(-c3cc(-c4c[nH]nc4N)cc4nccn34)cn2)C[C@@H](C#N)C1` [Example 466, cis-3-{4-[7-(3-amino-1H-pyrazol-4-yl)imidazo[1,2-a]pyridin-5-yl]-1H-pyrazol-1-yl}-3-(cyanomethyl)cyclobutanecarbonitrile], the IC50 on TYK2 was 0.073 µM; at JAK1, 2.71 µM; on JAK2, 1.26 µM; on JAK3, > 10 µM.

As to `N#CC[C@]1(n2cc(-c3cc(-c4nc(CO)cs4)cc4nccn34)cn2)C[C@@H](C#N)C1` [Example 467, cis-3-(cyanomethyl)-3-(4-{7-[4-(hydroxymethyl)-1,3-thiazol-2-yl]imidazo[1,2-a]pyridin-5-yl}-1H-pyrazol-1-yl)cyclobutanecarbonitrile], the IC50 on TYK2 was 0.051 µM; on JAK1, 1.6 µM; at JAK2, 0.518 µM; on JAK3 it was > 10 µM.

With `N#CC[C@]1(n2cc(-c3cc(-c4ccc(O)cc4)cc4nccn34)cn2)C[C@@H](C#N)C1` [Example 468, cis-3-(cyanomethyl)-3-{4-[7-(4-hydroxyphenyl)imidazo[1,2-a]pyridin-5-yl]-1H-pyrazol-1-yl}cyclobutanecarbonitrile], the IC50 at TYK2 was 0.127 µM; at JAK1, 1.53 µM; on JAK2 it was 1.22 µM; on JAK3, > 10 µM.

With `N#CC[C@]1(n2cc(-c3cc(-c4ccc(N)nc4)cc4nccn34)cn2)C[C@@H](C#N)C1` [Example 469, cis-3-{4-[7-(6-aminopyridin-3-yl)imidazo[1,2-a]pyridin-5-yl]-1H-pyrazol-1-yl}-3-(cyanomethyl)cyclobutanecarbonitrile], the IC50 at TYK2 is 0.102 µM; on JAK1 it was 2.39 µM; at JAK2 it was 1.04 µM; at JAK3, > 10 µM.

For `N#CC[C@]1(n2cc(-c3cc(-c4cccc(C(N)=O)n4)cc4nccn34)cn2)C[C@H](C#N)C1` [Example 470, 6-(5-{1-[cis-3-cyano-1-(cyanomethyl)cyclobutyl]-1H-pyrazol-4-yl}imidazo[1,2-a]pyridin-7-yl)pyridine-2-carboxamide], the IC50 is 0.025 µM on TYK2, 0.62 µM on JAK1, 0.147 µM on JAK2 and > 10 µM at JAK3.

In the case of `Cn1cc(-c2cc(-c3cnn([C@]4(CC#N)C[C@H](C#N)C4)n3)n3ccnc3c2)cn1` [Example 473, cis-3-(cyanomethyl)-3-{4-[7-(1-methyl-1H-pyrazol-4-yl)imidazo[1,2-a]pyridin-5-yl]-2H-1,2,3-triazol-2-yl}cyclobutanecarbonitrile], the IC50 was 0.09 µM on TYK2, 6.47 µM at JAK1, 1.93 µM at JAK2 and > 10 µM at JAK3.

With `Cn1cc(-c2cc(-c3cnn(C4(CC#N)CC(C#N)C4)n3)n3ccnc3c2)cn1` (stereo not drawn) [Example 474, trans-3-(cyanomethyl)-3-{4-[7-(1-methyl-1H-pyrazol-4-yl)imidazo[1,2-a]pyridin-5-yl]-2H-1,2,3-triazol-2-yl}cyclobutanecarbonitrile], the 50% inhibitory concentration (IC50) at TYK2 was 1.12 µM; at JAK1, > 10 µM; at JAK2 it was > 10 µM; at JAK3, > 10 µM.

As for `Cn1cc(-c2cc(-c3cnn(C4(CC#N)CN(CC(F)(F)F)C4)c3)n3ncnc3c2)cn1` [Example 475, [3-{4-[7-(1-methyl-1H-pyrazol-4-yl)[1,2,4]triazolo[1,5-a]pyridin-5-yl]-1H-pyrazol-1-yl}-1-(2,2,2-trifluoroethyl)azetidin-3-yl]acetonitrile], the IC50 on TYK2 was 0.462 µM; at JAK1, 6.67 µM; on JAK2 it was 6.85 µM; on JAK3, > 10 µM.

`Cn1cc(-c2cc(-c3ccn(C4(CC#N)CN(CC(F)(F)F)C4)n3)n3ncnc3c2)cn1` [Example 476, [3-{3-[7-(1-methyl-1H-pyrazol-4-yl)[1,2,4]triazolo[1,5-a]pyridin-5-yl]-1H-pyrazol-1-yl}-1-(2,2,2-trifluoroethyl)azetidin-3-yl]acetonitrile]: the IC50 is 0.48 µM at TYK2, 0.693 µM on JAK1, 0.486 µM on JAK2 and 7.28 µM at JAK3.

By IC50 is commonly meant the concentration that inhibits the measured activity by half.
